The record followed here is patent publication US7122551B2, “Metalloproteinase inhibitor compounds” (AstraZeneca AB, priority 2000, dated 2006).

Data set [1] can be described thus: biological activity of separated enantiomers / diastereomers (test not specified). The settings on record: enantiomers compared by order of elution; test and target not stated.

For the compound `O=CN(O)[C@@H](CCCc1ncccn1)CS(=O)(=O)N1CCN(c2ccc(Cl)cn2)CC1` [Example 4, N-[(1S)-1-({[4-(5-chloropyridin-2-yl)piperazino]sulfonyl}methyl)-4-(pyrimidin-2-yl)butyl]-N-hydroxyformamide], the melting point was in the range of 124.5 to 126.5 °C.
On the same count and under the same terms, then `O=CN(O)C(CCc1ncc(F)cn1)CS(=O)(=O)N1CCN(c2ccc(Cl)cn2)CC1` (stereo not drawn) [Example 2, N-[1-([4-(5-chloropyridin-2-yl)piperazino]sulfonylmethyl)-3-(5-fluoropyrimidin-2-yl)propyl]-N-hydroxyformamide], with 154 to 155 °C.
For the compound `O=CN(O)[C@@H](CCc1ncccn1)CS(=O)(=O)N1CCN(c2ccc(Cl)cn2)CC1` [Example 6 2nd enantiomer eluted, N-[(1S)-1-({[4-(5-chloropyridin-2-yl)piperazino]sulfonyl}methyl)-3-(pyrimidin-2-yl)propyl]-N-hydroxyformamide], in data set [1], the “Biological activity of separated enantiomers” value was “Biological activity lies in the compound eluted second from the column”.
